The assay concerns the target recombinant Nudt7 (Mus musculus, UniProt Q99P30). As to the kind of experiment: CoA diphosphohydrolase assay, protein curves. In kind it is biochemical. The note with it: MgCl2 or MnCl2.

Sequence of recombinant Nudt7 (Q99P30 whole entry): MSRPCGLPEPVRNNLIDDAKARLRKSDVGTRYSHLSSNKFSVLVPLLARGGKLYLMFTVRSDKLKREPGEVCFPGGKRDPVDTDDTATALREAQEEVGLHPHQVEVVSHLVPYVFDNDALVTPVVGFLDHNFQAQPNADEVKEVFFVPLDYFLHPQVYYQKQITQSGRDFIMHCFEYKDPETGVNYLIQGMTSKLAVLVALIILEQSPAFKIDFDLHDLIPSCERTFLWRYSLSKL

For the compound `CC(C)(COP(=O)(O)OP(=O)(O)OC[C@H]1O[C@@H](n2cnc3c(N)ncnc32)[C@H](O)[C@@H]1OP(=O)(O)O)[C@@H](O)C(=O)NCCC(=O)NCCS` [Free CoA], the “CoA diphosphohydrolase assay, protein curves” value is “the specific activity of Nudt8 against free CoA was comparable to that of Nudt7”.
